# According to patent US6372727B1, “Metalloporphyrin treatment of neurologic disease” (UAB Research Foundation, priority 1999, dated 2002):
# B1: BDNF: brain-derived neurotrophic factor (protein, UniProt P23560 19-247, looked up)
# Neurotrophic factor BDNF …: APMKEANIRGQGGLAYPGVRTHGTLESVNGPKAGSRGLTSLADTFEHVIEELLDEDQKVRPNEENNKDADLYTSRVMLSSQVPLEPPLLFLLEEYKNYLDAANMSMRVRRHSDPARRGELSVCDSISEWVTAADKKTAVDMSGGTVTVLEKVPVSKGQLKQYFYETKCNPMGYTKEGCRGIDKRHWNSQCRTTQSYVRALTMDSKKRIGWRFIRIDTSCVCTLTIKRGR
# How the values were obtained:
# [1] = MP-catalyzed peroxynitrite decomposition monitored at 302 nm; type: biochemical; conditions: for Rate Constants for MP-Catalyzed Decomposition of Peroxynitrite (pH 7.4, 37° C.): 100 μM peroxynitrite, absence of added reductants
# Procedure: Peroxynitrite (100 μM) was added to rapidly stirred cuvettes at 37° C. containing the indicated concentrations of MPs in 0.1 M potassium phosphate, pH 7.4. Ascorbate was added to 150 μM where indicated. Peroxynitrite decomposition was monitored at 302 nm using a Hewlett-Packard diode-array spectrophotometer. Apparent rates (kapparents^−1, average of n=3) were plotted versus MP concentration to determine rate constants in M^−1s^−1.
# Reactions contained the indicated concentration of FeTCPPin 1.4 ml of 0.1 M potassium phosphate, pH 7.4 in the absence or presence to 150 μM ascorbic acid. Peroxynitrite (100 μM) was added to rapidly stirred cuvettes at 37° C. and the decay of peroxynitrite was monitored continuously at 302 nm. Decay data were fitted to the equation describing first order decay to obtain apparent decay rates (kapparent sec^−1). Apparent decay rates as a function of FeTCPP were fitted by linear regression and the rate constant was obtained slope of the line.
# Peroxynitrite (100 μM) decomposition was determined at 302 nm using a Hewlett-Packard diode-array spectrophotometer fitted with a temperature-controlled cuvette chamber and a water-driven cuvette stirrer. Bolus additions of peroxynitrite were made to vigorously stirred cuvettes containing varying concentrations of MPs (see Table III) while data were collected at a rate of ten points/sec. […] Each reaction was repeated three times and only the first additions of peroxynitrite were averaged. Data were exported for fitting and plotting. Apparent rates of peroxynitrite decomposition were plotted as a function of metalloporphyrin concentration (as shown in FIG. 5) to determine concentration-independent rate constants at 37° C.
# Rates of peroxynitrite (100 μM) decomposition were determined at different MP concentrations. Ascorbate was added to 150 μM where indicated. […] Apparent rate constants were plotted versus MP concentration (as in FIG. 5A,B) to determine true rate constants in M^−1s^−1±standard error.
# [2] = Peroxynitrite-mediated nitration of GYA peptide; type: biochemical; conditions: 2 mM GYA; for effect on nitration: 10 μM MP, pH 7.4; for enhancement of nitration yield: 10 μM MP or SOD subunit, 1 mM CO2, pH 7.4, 37° C.
# Procedure: Nitration efficiency, defined as the moles of nitrated GYA peptide formed per mole of peroxynitrite added, was determined at a fixed concentration of 10 μM MP or Cu,Zn SOD subunit, or 1 mM CO2 as described below. Increasing amounts of peroxynitrite were added in a sequential manner in order to determine whether nitration efficiency varied with concentration and to determine whether nitration catalysis was maintained with multiple additions (see INSET). Nitration efficiency was calculated for each peroxynitrite addition; the values shown are the average of all nine peroxynitrite additions. Absorbance changes were monitored simultaneously at 380, 430, and 460 nm.
# (§1) For nitration of GYA peptide (see FIG. 6), reaction solutions contained 2 mM GYA and 10 μM of the indicated MP in 1.4 ml of 0.1 M potassium phosphate, pH 7.4 at 37° C. Comparisons with two previously characterized nitration catalysts, human Cu,Zn superoxide dismutase (hCu,Zn SOD) and carbon dioxide, were made using 10 μM of SOD subunit and 25 mM potassium bicarbonate, respectively, which was pH-adjusted to 7.4. This level of bicarbonate results in rapid saturation of the solution with carbon dioxide (˜1 mM). Solutions were placed into a rapidly stirred cuvette and nine bolus additions (50 μM×3, 100 μM×3, and 200 μM×3) of peroxynitrite were made sequentially while the absorbance was monitored. Increasing amounts of peroxynitrite were added in a sequential manner in order to determine whether nitration efficiency varied with concentration and to determine whether nitration catalysis was maintained with multiple additions (see FIG. 6 inset). Nitration efficiency was defined as the amount of nitropeptide formed per amount of peroxynitrite added and was calculated for each peroxynitrite addition; the values shown are the average of all nine peroxynitrite additions. The absorbance changes associated with nitrotyrosine peptide production were monitored simultaneously at 380, 430, and 460 nm. The extinction coefficients for nitrated GYA at pH 7.4 are 4,400 M^−1cm^−1 at 430 nm and 2,200 M^−1cm^−1 at both 380 and 460 nm. […] Wavelengths used to quantify nitrotyrosine production were chosen to minimize interference by the particular metalloporphyrin used. Experiments using HPA as a nitration target (FIG. 7) contained 8 mM HPA in either 0.1 M potassium phosphate, pH 7.4 or 0.1 M sodium borate, pH 9.1.
# The relative abilities of several MPs to enhance nitration of the tripeptide GYA was compared using 10 μM MP and sequential bolus additions of 50 μM (×3), 100 μM (×3), and 200 μM (×3)peroxynitrite (FIG. 6, inset).
# cultured motor neurons = assay: Protection of cultured motor neurons from growth factor withdrawal; type: cell-based; conditions: for level of protection compared with FeTCPP: 72 hr after trophic factor deprivation
# Procedure: Culture Motor neurons were prepared from embryonic day 15 (E15) rat spinal cords by a combination of metrizamide gradient centrifugation and immunopanning with the monoclonal antibody IgG192 (Chandler et al., J. Biol. Chem. 259:6882-6889, 1984) as previously described (Estevez et al., J Neurosci 18:923-931, 1998; Henderson C E, Bloch-Gallego E, Camu W (1995): Purification and culture of embryonic motorneurons. In Cohen J, Wilkin G (eds): Neural Cell Culture: A Practical Approach. Oxford, England: IRL Press, pp 69-81). Long-term cultures of motor neurons were performed as described by Pennica et al. (Pennica et al., Neuron 17:63-74, 1996). Briefly, motor neurons were plated at a density of 200 cells/cm2 on 35 mm dishes precoated with polyornithine-laminin in Neurobasal medium supplemented with B27 (Life Technologies, Grand Island, N.Y.), 2% horse serum, 0.5 mM L-glutamine, 25 μM 2-mercaptoethanol and 25 μM L-glutamate. Every 3-4 days ¾ of the culture medium was replaced by fresh medium lacking L-glutamate and containing sufficient quantities of BDNF or FeTCPP to supplement the 2 ml of medium in the dish. More than 94% of the cells were immunoreactive for the p75 low-affinity neurotrophic receptor (p75NTR) and Islet ½, which are markers for motor neurons. The experiments were repeated at least 2 times using the same lot of Neurobasal medium and B 27 supplement.
# The number of motor neurons with neurites longer than 4 soma diameters present in parallel cultures treated with BDNF at a final concentration of 100 pg/ml 24 h after plating or culture media replacement was considered 100% motor neuron survival. FeTCPP was resuspended in complete Neurobasal medium at a 5 mM concentration. Dilutions were performed of the stock solution to add 20 μl per dish.
# Rat motor neurons survive many days in culture when brain-derived neurotrophic factor (BDNF) is added to the culture media. Because motor neurons are the cells that preferentially die in ALS, primary cultures of motor neurons represent the best non-animal model of ALS. Withdrawal of BDNF results in apoptotic death of >70% of motor neurons within 24 h. Cell death was correlated with expression of the neuronal form of nitric oxide synthase (nNOS) and the production of peroxynitrite, as evidenced by protein tyrosine nitration. When FeTCPP is added to the culture media in place of BDNF and motor neuron survival is assessed at 24 h, some protection is seen at concentrations as low as 0.01 μM (FIG. 10A). […] Additionally, a comparison of the effect of FETCPP and its tetra-methyl ester derivative, TMeO-FeTCPP, on motor neuron survival at 72 hr.
# [3] = test system: ALS-SOD1 (G93A) transgenic mice; assay: Survival of ALS-SOD1 (G93A) transgenic mice; type: in vivo; conditions: G93A mutant of Cu,Zn superoxide dismutase transgene
# Procedure: FIG. 13A: Transgenic mice (n=9) were injected intraperitoneally with 3 mg/kg/day of a low molecular weight (844.6) synthetic iron porphyrin. […] Treatment was continued until such time that signs of diaphragm weakness (labored breathing) necessitated sacrifice. A control group of transgenic mice was treated with vehicle only (phosphate-buffered saline). FIG. 13B: Transgenic mice were injected intraperitoneally with 1 mg/kg/day of a low molecular weight (844.6) synthetic iron porphyrin. Treatment began at day 60 prior to the onset of symptoms. A control group of transgenic mice was treated with vehicle only (phosphate-buffered saline).
# Mice transgenic for the G93A mutated form of SOD1 are generally accepted as the standard model of motor neuron disease. […] This compound extended the mean survival time by 13 days (from 127 to 140 days) (FIG. 13A).
# A group of G93A mice was treated with 1 mg/kg of FeTCPP intraperitoneally beginning at 60 days of age. As with the control group in FIG. 13A, none of the control group in this test survived past 132 days. However, the probability of survival at 140 days was about 37% and at approximately 180 days survival was still at 20%.
# [4] = Ascorbate oxidation by MPs monitored at 266 nm; type: biochemical; conditions: MP 10 μM, 50 μM ascorbate, 0.1 M potassium phosphate pH 7.4, ± standard error, n=3
# Procedure: In order to test the hypothesis that Mn(II)- or Fe(II)-porphyrins would be capable of carrying out two-electron reductions of peroxynitrite and thereby decreasing rather than increasing its reactivity, attempts were made to pre-reduce these transition metal-containing MPs prior to addition of peroxynitrite.
# Table V. Ascorbate oxidation by MPs. MPs (10 μM) were added to stirred cuvettes containing 0.1 M potassium phosphate, pH 7.4 and 50 μM ascorbate. Ascorbate oxidation was monitored at 266 nm (ηm=17,700 M^−1cm^−1). Oxidation rates (±standard errors) were determined by fitting the initial linear portion of each curve and averaging the rates (n=3).
# [5] = MP-catalyzed nitration of HPA: effect of pH, reductants and serum; type: biochemical
# Procedure: Single additions of 100 μM peroxynitrite were made to reactions containing ascorbate or GSH. Three sequential additions of 100 μM peroxynitrite were made to all other reactions.
# as §1, with “This” for “For nitration of GYA peptide (see FIG. 6), reaction solutions contained 2 mM GYA and 10 μM of the indicated MP in 1.4 ml of 0.1 M potassium phosphate, pH 7.4 at 37° C. Comparisons with two previously characterized nitration catalysts, human Cu,Zn superoxide dismutase (hCu,Zn SOD) and carbon dioxide, were made using 10 μM of SOD subunit and 25 mM potassium bicarbonate, respectively, which was pH-adjusted to 7.4. This”
molecule,measurement,setting,value
"O=C(O)c1ccc(-c2c3nc(c(-c4ccc(C(=O)O)cc4)c4ccc([n-]4)c(-c4ccc(C(=O)O)cc4)c4nc(c(-c5ccc(C(=O)O)cc5)c5ccc2[n-]5)C=C4)C=C3)cc1.[Zn+2] [ZnTBAP, Zinc (II) tetra-(4-benzoic acid)-porphyrin]","Rate Constants for MP-Catalyzed Decomposition of Peroxynitrite (pH 7.4, 37° C.)",[1],5.3 × 10^3 ± 0.3 M^−1s^−1
same,effect on nitration,[2],small but reproducible inhibitory effect
"O=C1O[C@H]([C@@H](O)CO)C(O)=C1O [ascorbate, ascorbic acid]",acceleration of peroxynitrite decomposition,"[1]; ascorbate alone 150 μM, no MP",16%
O=C=O [carbon dioxide],enhancement of nitration yield,[2],1.7 fold
Copper (II) meso-tetra-(4-sulfonatophenyl)-porphyrin [CuTSPP],effect on nitration,[2],small but reproducible inhibitory effect
"Iron (III) meso 5,10,15,20-tetrakis-(4-carboxymethyl-phenyl) porphyrin [FeTMeO-TCPP]",survival of cultured motor neurons deprived of growth factors,cultured motor neurons,prolong survival of cultured motor neurons
same,level of protection compared with FeTCPP,cultured motor neurons; 0.01 μM,twice the level of protection
same,level of protection compared with FeTCPP,cultured motor neurons; 0.1 μM,slightly greater level of protection
same,progression of motor neuron death in mice,[3],slow the progression of motor neuron death
Iron (III) meso-tetra-(4-sulfonatophenyl)-porphyrin [FeTSPP],Rate of Ascorbate Oxidation,[4],4.58 ± 0.21 µM/min
same,"Rate Constants for MP-Catalyzed Decomposition of Peroxynitrite (pH 7.4, 37° C.)",[1],3.3 × 10^5 ± 0.4 M^−1s^−1
same,enhancement of nitration yield,[2],5.3 fold
same,enhancement of nitration yield at pH 9.1,"[5]; 8 mM HPA, 10 μM MP, 0.1 M sodium borate pH 9.1, versus non-catalyzed",2.8 fold
same,effect of ascorbate and GSH on nitration enhancement,[5]; concentrations which eliminated non-catalyzed nitration,largely prevented the enhancement of nitration
same,effect of serum on nitration enhancement,[5]; fresh human serum 1:10 added prior to peroxynitrite,largely eliminated the nitration enhancement
B1,motor neurons that die between day 8 and day 16,cultured motor neurons; long-term culture in the presence of BDNF,80%
